Here are results for 29 molecules from patent EP2975030B1, “DIHYDROPYRIDAZINE-3,5-DIONE DERIVATIVE” (Chugai Seiyaku Kabushiki Kaisha, priority 2013, dated 2014).

The assay relates to rat small-intestinal brush border membrane vesicles. Kind of assay: Inhibitory effect on 33PO4 uptake into rat small-intestinal brush border membrane vesicles (rapid filtration method). The format is biochemical, Wistar female rat. To be noted: 1 µM test compound; 33PO4 uptake into rat small-intestinal BBMVs, 60 seconds. The gist of the method:
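Uptake was terminated by ice-cold 110 mM NaCl, 1 mM KH2PO4, 10 mM HEPES (pH 7.5) buffer and immediate suction filtration, then washing. Using rat small-intestinal BBMVs, retained 33PO4 was quantified by liquid scintillation counting as transport activity.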

Each structure is given as a SMILES string.

Regarding `CSc1ccc(-c2cc(C(F)(F)F)ccc2NC(=O)C2=C(O)[C@@]3(C)CCCN3N(Cc3ccc(C#CCCCCC(=O)O)c(F)c3F)C2=O)cn1` [Example 117, 7-[4-[[(4aR)-4-Hydroxy-4a-methyl-3-[[2-(6-methylsulfanylpyridin-3-yl)-4-(trifluoromethyl)phenyl]carbamoyl]-2-oxo-6,7-dihydro-5H-pyrrolo[1,2-b]pyridazin-1-yl]methyl]-2,3-difluorophenyl]hept-6-ynoate], the “Rate of uptake inhibition (%) (1 µM)” value is listed as 78%.
With `CSC1CN(CCOc2ccc(CN3C(=O)C(C(=O)Nc4ccc(C(F)(F)F)cc4-c4cc(C(F)(F)F)ncn4)=C(O)C4(CCC4)N3C)c(F)c2F)C1` [Example 357], the “Rate of uptake inhibition (%) (1 µM)” value is 45%.
Turning to `CN1N(Cc2cccc(F)c2F)C(=O)C(C(=O)Nc2ccc(Br)c(C(F)(F)F)n2)=C(O)C12CCC2` [Example 258], the “Rate of uptake inhibition (%) (1 µM)” value was 87%.
On to `C[C@]12CCCN1N(Cc1cccc(F)c1F)C(=O)C(C(=O)Nc1ccc(C(F)(F)F)cc1-c1cc(Cl)cnc1Cl)=C2O` [Example 84], for which the “Rate of uptake inhibition (%) (1 µM)” value amounted to 91%.
Regarding `COCCN(C)CCOc1c(I)cc(CN2C(=O)C(C(=O)Nc3ccc(C(F)(F)F)cc3-c3cc(C(F)(F)F)ncn3)=C(O)C3(CCCC3)N2C)c(F)c1F` [Example 437, 7-[[2,3-Difluoro-5-iodo-4-[2-[2-methoxyethyl(methyl)amino]ethoxy]phenyl]methyl]-10-hydroxy-6-methyl-8-oxo-N-[4-(trifluoromethyl)-2-(6-(trifluoromethyl)pyrimidin-4-yl]phenyl]-6,7-diazaspiro[4.5]dec-9-ene-9-carboxamide], the “Rate of uptake inhibition (%) (1 µM)” value was 45%.
As to `CCC1(CC)C(O)=C(C(=O)Nc2ccc(C(F)(F)F)cc2-c2ccc(C(F)(F)F)nc2)C(=O)N(Cc2ccc(OCCN3CCOCC3)c(F)c2F)N1C` [Example 293], the “Rate of uptake inhibition (%) (1 µM)” value is reported as 47%.
The figure for `CN1N(Cc2ccc(OCCCCCOC[C@H](O)CO)c(F)c2F)C(=O)C(C(=O)Nc2ccc(C(F)(F)F)cc2-c2cc(C(F)(F)F)ncn2)=C(O)C12CCCC2` [Example 394] is 45%.
In the case of `C[C@]12CCCN1N(Cc1cccc(F)c1F)C(=O)C(C(=O)Nc1ccc(Br)cc1-c1cc(C(F)(F)F)ncn1)=C2O` [Example 64], the “Rate of uptake inhibition (%) (1 µM)” value worked out at 77%.
As to `Cc1nc(NC(=O)C2=C(O)C3(CCCC3)N(C)N(Cc3cccc(F)c3F)C2=O)ccc1Br` [Example 262], the “Rate of uptake inhibition (%) (1 µM)” value stood at 43%.
With `CN1N(Cc2ccc(OCCN3CCOCC3(C)C)c(F)c2F)C(=O)C(C(=O)Nc2ccc(C(F)(F)F)cc2-c2cc(C(F)(F)F)ncn2)=C(O)C12CCCC2` [Example 371], the “Rate of uptake inhibition (%) (1 µM)” value was 38%.
As to `COC[C@@H]1CCCN1CCOc1ccc(CN2C(=O)C(C(=O)Nc3ccc(C(F)(F)F)cc3-c3cc(C(F)(F)F)ncn3)=C(O)C3(CCCC3)N2C)c(F)c1F` [Example 375], the “Rate of uptake inhibition (%) (1 µM)” value is 31%.
Consider `COCCN(C)CCOCCOCCOc1ccc(CN2C(=O)C(C(=O)Nc3ccc(C(F)(F)F)cc3-c3cc(C(F)(F)F)ncn3)=C(O)C3(CCCC3)N2C)c(F)c1F` [Example 430], for which the “Rate of uptake inhibition (%) (1 µM)” value amounted to 29%.
Turning to `Cc1cccc(CN2C(=O)C(C(=O)Nc3cc(F)c(Br)c(F)c3)=C(O)[C@@]3(C)CCCN23)c1F` [Example 195], the “Rate of uptake inhibition (%) (1 µM)” value turned out to be 76%.
Take `C[C@]12CCCN1N(Cc1cccc(F)c1F)C(=O)C(C(=O)Nc1ccc(Cl)cc1-c1ccc(C(F)(F)F)nc1)=C2O` [Example 86]: the “Rate of uptake inhibition (%) (1 µM)” value was 83%.
Turning to `C[C@]12CCCN1N(Cc1cccc(F)c1F)C(=O)C(C(=O)Nc1ccc(C(F)(F)F)cc1-c1cc(C#N)ncn1)=C2O` [Example 100], the “Rate of uptake inhibition (%) (1 µM)” value was 69%.
`C[C@]12CCCN1N(Cc1cccc(F)c1F)C(=O)C(C(=O)Nc1ccc(Cl)cn1)=C2O` [Example 79]: the “Rate of uptake inhibition (%) (1 µM)” value is 71%.
Consider `CN1N(Cc2ccc(C#CCN3CCOCC3)c(F)c2F)C(=O)C(C(=O)Nc2ccc(Cl)cc2-c2cc(C(F)(F)F)ncn2)=C(O)C1(C)C` [Example 316, N-[4-Chloro-2-[6-(trifluoromethyl)pyrimidin-4-yl]phenyl]-2-[[2,3-difluoro-4-(3-morpholin-4-ylprop-1-ynil)phenyl]methyl]-5-hydroxy-1,6,6-trimethyl-3-oxopyridazine-4-carboxamide], for which the “Rate of uptake inhibition (%) (1 µM)” value is given as 64%.
For the molecule `CSc1cc(-c2cc(C(F)(F)F)ccc2NC(=O)C2=C(O)[C@@]3(C)CCCN3N(Cc3cccc(F)c3F)C2=O)cnc1C#N` [Example 113], the “Rate of uptake inhibition (%) (1 µM)” value is 84%.
As for `CN(CCOc1ccc(CN2C(=O)C(C(=O)Nc3ccc(C(F)(F)F)cc3-c3cc(C(F)(F)F)ncn3)=C(O)C3(CCCC3)N2C)c(F)c1F)C1COC1` [Example 412, 7-(2,3-Difluoro-4-(2-(methyl(oxetan-3-yl)amino)ethoxy)benzyl)-10-hydroxy-6-methyl-8-oxo-N-(4-(trifluoromethyl)-2-(6-(trifluoromethyl)pyrimidin-4-yl)phenyl)-6,7-diazaspiro[4.5]dec-9-ene-9-carboxamide], the “Rate of uptake inhibition (%) (1 µM)” value amounted to 52%.
The figure for `CN1N(Cc2ccc(NCCN3CCOCC3)c(F)c2F)C(=O)C(C(=O)Nc2ccc(C(F)(F)F)cc2-c2cc(C(F)(F)F)ncn2)=C(O)C12CCCC2` [Example 447] is 50%; for `CN1N(Cc2ccc(OCCN3CCOCC3)c(F)c2F)C(=O)C(C(=O)Nc2ccc(Br)c(C(F)(F)F)n2)=C(O)C12CCCCC2` [Example 298] it is 10%; for `C[C@]12CCCN1N(Cc1ccc(C#CCN3CCCC3=O)c(F)c1F)C(=O)C(C(=O)Nc1ccc(Br)c(F)c1)=C2O` [Example 131] it is 87%.
To `C[C@H]1COC[C@H](C)N1CCOc1ccc(CN2C(=O)C(C(=O)Nc3ccc(C(F)(F)F)cc3-c3cc(C(F)(F)F)ncn3)=C(O)C3(CCC3)N2C)c(F)c1F` [Example 343] belongs 68%.
Regarding `Cc1cc(NC(=O)C2=C(O)[C@]3(C)CCCN3N(Cc3cccc(F)c3)C2=O)c(C(F)(F)F)o1` [Example 8], the “Rate of uptake inhibition (%) (1 µM)” value was 37%.
As to `CN1N(Cc2cccc(F)c2F)C(=O)C(C(=O)Nc2ccc(Cl)cc2-c2ccc(C(F)(F)F)nc2)=C(O)C1(C)C` [Example 309], the “Rate of uptake inhibition (%) (1 µM)” value came to 68%.
To `C[C@]12CCCN1N(Cc1ccccc1Cl)C(=O)C(C(=O)Nc1ccc(C(F)(F)F)cc1-c1cc(C(F)(F)F)ncn1)=C2O` [Example 180] belongs 75%; to `CN1[C@@H](C(C)(C)C)C(O)=C(C(=O)Nc2ccc(C(F)(F)F)cc2C(F)(F)F)C(=O)N1Cc1ccc(OCCN2CCOCC2)c(F)c1F` [Example 277], 41%.
Regarding `CCOC(=O)CCCCCCN1C(=O)C(C(=O)Nc2ccc(C(F)(F)F)cc2-c2ccc(C(F)(F)F)nc2)=C(O)[C@@]2(C)CCCN12` [Example 235, Ethyl 7-[(4aR)-4-hydroxy-4a-methyl-2-oxo-3-[[4-(trifluoromethyl)-2-[6-(trifluoromethyl)pyridin-3-yl]phenyl]carbamoyl]-6,7-dihydro-5H-pyrrolo[1,2-b]pyridazin-1-yl]heptanoate], the “Rate of uptake inhibition (%) (1 µM)” value is reported as 65%.
Consider `COCCN(CCOC)CCOc1ccc(CN2C(=O)C(C(=O)Nc3ccc(C(F)(F)F)cc3-c3cc(C(F)(F)F)ncn3)=C(O)C3(CCC3)N2C)c(F)c1F` [Example 348], for which the “Rate of uptake inhibition (%) (1 µM)” value turned out to be 31%.
